Columns and labels:
[1] = target: T1, galectin-9N (N-terminal domain) (Homo sapiens, UniProt O00182); experiment: Competitive fluorescence polarization assay, galectin-9N; assay type: binding; conditions: mean ± SEM of n = 4–8
T1 construct: galectins (N = N-terminal domain, C = C-terminal domain); made in house
Protocol: (§1) 1. Competitive fluorescence polarization experiments:
(§2) Human galectins -1, -3, -4N, -4C, -7, -8N, -9N, and -9C were expressed and purified as previously described 30,41. Fluorescence polarisation experiments were performed using the PHERAstar FS plat e reader (software version 2.10 R3), and the fluorescence anisotropy of fluorescein tagged probes was measured by excitation at 485 nm and emission at 520 nm. The specific conditions for galectins -1, -3, -4N, -4C, -7, -8N, -9N, and -9C were kept as report ed30,41,42. The synthesised compounds were dissolved in pure DMSO at 20 mM concentration and diluted in PBS to 3-6 different concentrations, and each concentration was tested in duplicate. The highest inhibitor concentrations tested were 1.5 mM. The

[2] = target: T2, galectin-4C (C-terminal domain) (Homo sapiens, UniProt P56470); experiment: Competitive fluorescence polarization assay, galectin-4C; assay type: binding; conditions: mean ± SEM of n = 4–8
T2 construct: galectins (N = N-terminal domain, C = C-terminal domain); made in house
T2 sequence (P56470 194-323 limits assumed): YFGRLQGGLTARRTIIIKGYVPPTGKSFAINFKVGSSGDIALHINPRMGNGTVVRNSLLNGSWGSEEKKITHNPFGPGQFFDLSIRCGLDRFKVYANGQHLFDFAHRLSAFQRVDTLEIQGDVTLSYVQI
Protocol: as §1, §2

[3] = target: T3, galectin-3 (Homo sapiens, UniProt P17931); experiment: Competitive fluorescence polarization assay, galectin-3; assay type: binding; conditions: mean ± SEM of n = 4–8
T3 construct: made in house
T3 sequence (P17931 whole entry): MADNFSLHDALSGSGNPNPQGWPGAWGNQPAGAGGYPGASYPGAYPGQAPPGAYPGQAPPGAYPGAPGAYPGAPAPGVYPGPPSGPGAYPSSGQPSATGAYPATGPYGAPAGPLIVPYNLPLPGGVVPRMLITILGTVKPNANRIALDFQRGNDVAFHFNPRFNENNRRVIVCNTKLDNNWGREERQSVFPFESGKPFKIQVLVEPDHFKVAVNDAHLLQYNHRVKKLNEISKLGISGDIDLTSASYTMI
Protocol: as §1, §2

[4] = target: T4, galectin-8C (C-terminal domain) (Homo sapiens, UniProt O00214); experiment: Competitive fluorescence polarization assay, galectin-8C; assay type: binding; conditions: mean ± SEM of n = 4–8
T4 construct: galectins (N = N-terminal domain, C = C-terminal domain)
T4 sequence (O00214 187-317 limits assumed): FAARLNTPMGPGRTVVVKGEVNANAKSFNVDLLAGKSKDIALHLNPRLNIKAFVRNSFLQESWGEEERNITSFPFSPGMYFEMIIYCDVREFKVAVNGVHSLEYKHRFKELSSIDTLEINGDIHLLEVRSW

[5] = target: T5, galectin-4N (N-terminal domain) (Homo sapiens, UniProt P56470); experiment: Competitive fluorescence polarization assay, galectin-4N; assay type: binding; conditions: mean ± SEM of n = 4–8
T5 construct: galectins (N = N-terminal domain, C = C-terminal domain); made in house
T5 sequence (P56470 19-150 limits assumed): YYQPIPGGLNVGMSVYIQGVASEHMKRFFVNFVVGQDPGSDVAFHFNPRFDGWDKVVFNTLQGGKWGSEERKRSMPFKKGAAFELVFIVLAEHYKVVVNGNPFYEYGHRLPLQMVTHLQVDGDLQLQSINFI
Protocol: as §1, §2

[6] = target: T6, galectin-8N (galectin-8 N-terminal domain) (Homo sapiens, UniProt O00214); experiment: Competitive fluorescence polarization assay, galectin-8N; assay type: binding; conditions: mean ± SEM of n = 4–8
T6 construct: selective ligand for the galectin-8 N-terminal domain (galectin-8N); made in house
T6 sequence (O00214 19-152 limits assumed): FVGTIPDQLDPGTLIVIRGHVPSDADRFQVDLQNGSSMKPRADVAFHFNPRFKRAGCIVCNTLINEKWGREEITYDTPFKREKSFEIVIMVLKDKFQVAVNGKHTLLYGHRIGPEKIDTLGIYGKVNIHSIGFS
Protocol: All synthesized D-galactal derivatives had higher binding affinities for galectin-8N than D-galactal 3.
as §1, §2

[7] = target: T7, galectin-1 (Homo sapiens, UniProt P09382); experiment: Competitive fluorescence polarization assay, galectin-1; assay type: binding; conditions: mean ± SEM of n = 4–8
T7 construct: made in house
T7 sequence (P09382 whole entry): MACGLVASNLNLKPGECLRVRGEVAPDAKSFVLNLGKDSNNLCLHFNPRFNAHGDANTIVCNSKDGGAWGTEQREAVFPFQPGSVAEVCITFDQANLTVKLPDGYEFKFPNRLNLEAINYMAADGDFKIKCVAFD
Protocol: as §1, §2

[8] = target: T8, galectin-9C (C-terminal domain) (Homo sapiens, UniProt O00182); experiment: Competitive fluorescence polarization assay, galectin-9C; assay type: binding; conditions: mean ± SEM of n = 4–8
T8 construct: galectins (N = N-terminal domain, C = C-terminal domain); made in house
T8 sequence (O00182 227-355 limits assumed): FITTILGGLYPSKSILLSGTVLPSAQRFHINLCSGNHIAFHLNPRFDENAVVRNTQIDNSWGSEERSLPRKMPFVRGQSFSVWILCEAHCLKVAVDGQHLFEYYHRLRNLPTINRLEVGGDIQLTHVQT
Protocol: as §1, §2

[9] = target: T9, galectin-2 (Homo sapiens, UniProt P05162); experiment: Competitive fluorescence polarization assay, galectin-2; assay type: binding; conditions: mean ± SEM of n = 4–8
T9 sequence (P05162 1-132): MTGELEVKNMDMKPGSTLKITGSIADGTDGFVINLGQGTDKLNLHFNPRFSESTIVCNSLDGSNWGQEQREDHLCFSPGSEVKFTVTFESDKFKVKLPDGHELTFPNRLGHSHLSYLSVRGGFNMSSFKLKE

[10] = test system: human peripheral blood mononuclear cells (PBMCs); experiment: MTS metabolic activity (cytotoxicity) assay, PBMCs; assay type: cell-based; conditions: concentrations up to 100 μM, 24 hours
Protocol: (§3) We have investigated the cytotoxicity of the compounds 1, 6a, and 6c via a (3-(4,5-dimethylthiazol-2-yl)-5-(3-carboxymethoxyphenyl)-2-(4-sulfophenyl)-2H-tetrazolium) (MTS) assay in K562 and MDA-MB-231 cancer cell lines to establish the direct antitumor activity of compounds, as well as human peripheral blood mononuclear cells (PBMCs), to evaluate their safety.
(§4) Metabolic activity assay:
(§5) The metabolic activities of the cell lines were determined using the CellTiter 96 Aqueous One Solution cell proliferation assay (MTS Reagents, Promega, Madison, WI, USA), according to the manufacturer instructions. Briefly, the cells were treated with the selected compounds in 0.1% dimethyl sulfoxide (DMSO; vehicle), 0.1% DMSO (control vehicle), or medium (control) and seeded at a cell density of 5,500 cells/well (MDA-MB-231 cells) or 4 x 10^4 cells/well (K562 cells), 7000 cells/well (HepG2 cells) or 1 x 10^5 cells/well (human PBMCs) in duplicates (MDA-MB-231, K562, and […]) or triplicates for HepG2 cells (100 µL), in sterile 96-well plates. For the MDA-MB-231 and HepG2, the cells were left to adhere overnight before adding the compounds. The plates were then incubated for 24 hours (48 hours for HepG2), after which 15 µL of MTS reagent was added to each well. After 30-90 minute of incubation, the absorbance was measured at 492 nm using a microplate reader (Synergy HTX Multi-Mode; BioTek Instruments, Inc., VT, USA). […]
(§6) Bead Array Human inflammatory cytokine Kit (content: IL-1, IL-6, IL-8, IL-10, IL-12p). The flow cytometric analyses were performed on an Attune NxT flow cytometer (Thermo Fisher Scientific, […]
(§7) Data are represented as means ± standard deviation (SD) from three representative independent experiments.
(§8) All experiments were performed at least twice, with average values expressed as means ± SD. All data were analyzed with the statistical software GraphPad Prism 8.0 (GraphPad Software, Inc., CA, USA). by one-way ANOVA followed with Dunnett’s multiple compar ison test. Differences were considered non-significant for p > 0.05, and significant (*) for p < 0.05. […]

[11] = test system: K562 cancer cell line; experiment: MTS metabolic activity (cytotoxicity) assay, K562; assay type: cell-based; conditions: concentrations 1 to 100 μM, 24 hours
Protocol: as §3, §4, §5, §6, §7, §8

[12] = target: T10, galectin-7 (Homo sapiens, UniProt P47929); experiment: Competitive fluorescence polarization assay, galectin-7; assay type: binding; conditions: mean ± SEM of n = 4–8
T10 construct: made in house
T10 sequence (P47929 whole entry): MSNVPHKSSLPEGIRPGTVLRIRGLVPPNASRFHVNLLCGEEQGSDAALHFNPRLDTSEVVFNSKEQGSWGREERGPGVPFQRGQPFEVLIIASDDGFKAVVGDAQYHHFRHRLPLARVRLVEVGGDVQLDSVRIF
Protocol: as §1, §2

[13] = test system: MDA-MB-231 cancer cell line; experiment: MTS metabolic activity (cytotoxicity) assay, MDA-MB-231; assay type: cell-based, human; conditions: concentrations 1 to 100 μM, 24 hours
Protocol: as §3, §4, §5, §6, §7, §8

T1 sequence (O00182 17-148 limits assumed): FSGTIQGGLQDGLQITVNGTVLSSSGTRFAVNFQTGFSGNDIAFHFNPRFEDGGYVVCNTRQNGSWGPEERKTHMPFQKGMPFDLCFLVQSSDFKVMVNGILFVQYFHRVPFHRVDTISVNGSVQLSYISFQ

SMILES	Kd [1] [mM]	Kd [2] [mM]	Kd [3] [µM]	Kd [4] [mM]	Kd [5] [mM]	Kd [6] [µM]	Kd [7] [mM]	Kd [8] [mM]	Kd [9] [µM]	direct cytotoxicity (MTS), PBMCs [10]	cell viability (MTS), K562 [11]	Kd [12] [mM]	cell viability (MTS), MDA-MB-231 [13]
COC(=O)c1ccc2nc(CO[C@@H]3C=CO[C@H](CO)[C@@H]3O)n(C)c2c1 [5a]	> 1.5	2.6 ± 0.23	1300 ± 130	3 ± 0.38	1.7 ± 0.06	400 ± 34	2.2 ± 0.138						
CCOC(=O)c1ccc2c(c1)nc(CO[C@@H]1C=CO[C@H](CO)[C@@H]1O)n2C [5b]			680 ± 37	1.5 ± 0.18		690 ± 53	0.84 ± 0.02						
COC(=O)c1ccc2nc(CO[C@@H]3C=CO[C@H](CO)[C@@H]3O)[nH]c2c1 [5c]	> 1.5	2.5	1200 ± 287	3 ± 0.3	3.2	180 ± 19	> 1.5	> 1.5					
Cn1c(CO[C@@H]2C=CO[C@H](CO)[C@@H]2O)nc2cc(C(=O)O)ccc21 [6b]	> 1.5	2.5 ± 0.3	770 ± 129	3 ± 0.03	3.6	810 ± 54	1.1 ± 0.087	> 1.5					
O=C(O)c1ccc2nc(CO[C@@H]3C=CO[C@H](CO)[C@@H]3O)[nH]c2c1 [6c]	> 1.5	1.9 ± 0.4	550 ± 32		1.4 ± 0.23	46 ± 4	> 1.5	2.5	990 ± 170	lack of direct cytotoxicity	None of the compounds decreased the viability	> 1.5	None of the compounds decreased the viability

From paper PMC8592027, “Structure-Guided Design of D-Galactal Derivatives with High Affinity and Selectivity for the Galectin-8 N-Terminal Domain” (ACS Medicinal Chemistry Letters, 2021)
